Patent publication US20030180827A1, “Highly sensitive and continuous protein tyrosine phosphatase test using 6,8-difluoro-4-methylumbelliferyl phosphate” (Aventis Pharma Deutschland Gmbh., priority 2002, published 2003)

Assays:
Type in all cases: biochemical
[1] = target: T1, protein tyrosine phosphatase PTP1B (Homo sapiens, UniProt P18031); experiment: DiFMUP test, inhibition of PTP1B; settings: DiFMUP substrate, 100 ng PTP1B/ml, pH 6.9, 37° C.; read-out: inhibitor concentration that reduces the activity of the PTP1B by half (IC-50)
T1 sequence (P18031 1-435): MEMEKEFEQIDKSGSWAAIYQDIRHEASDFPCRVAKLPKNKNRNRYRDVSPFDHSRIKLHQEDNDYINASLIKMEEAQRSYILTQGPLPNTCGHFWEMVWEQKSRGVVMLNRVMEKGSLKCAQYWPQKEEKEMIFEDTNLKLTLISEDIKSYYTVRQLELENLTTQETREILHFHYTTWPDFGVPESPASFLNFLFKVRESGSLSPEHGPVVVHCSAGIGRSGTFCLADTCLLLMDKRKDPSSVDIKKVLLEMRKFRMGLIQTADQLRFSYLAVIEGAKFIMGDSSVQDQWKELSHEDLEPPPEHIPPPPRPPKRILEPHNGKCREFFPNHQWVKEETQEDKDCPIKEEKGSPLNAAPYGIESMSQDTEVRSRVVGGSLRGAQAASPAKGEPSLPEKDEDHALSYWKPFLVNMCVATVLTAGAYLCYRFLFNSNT
Method: (§1) The test for determining the inhibitory effect of the active compound 2,2-dioxo-2,3dihydro-2,6-benzo[1,2,3]oxathiazol-5-yl)-(9-ethyl-9H-carbazol-3-ylmethyl)amine using the DiFMUP test takes place in a black microtiter plate at a temperature of 37° C. 120 μl volumes of reaction buffer are provided, with the buffer containing the following components: 100 ng of protein tyrosine phosphatase PTP1B/ml; 50 mM Hepes, pH 6.9; 150 mM NaCl; 1 mM EDTA; 2 mM DTT. To this are added 15 μl of the inhibitor solution to be tested, at a variety of concentrations. The phosphatase reaction is started by adding 15 μl of 1 mM DiFMUP solution and the fluorescence (measured in RFU) is measured, at time intervals of 30 seconds and over a period of 15 minutes, in a fluorescence microtiter plate photometer at 358/455 nm. The measure of the enzyme activity is the increase in fluorescence, which can be depicted graphically (FIG. 1). The reduction in enzymic activity which is obtained depends on the concentration of inhibitor employed. The inhibitor concentration at which the active compound 2,2-dioxo-2,3-dihydro-2,6-benzo[1,2,3]oxathiazol-5-yl)-(9-ethyl-9H-carbazol-3-ylmethyl)amine reduces the activity of the PTP1B by half (IC-50) can be determined to be 3.8 μM. The IC-50 values using the pNPP test method and the malachite green phosphopeptide test were determined for comparison. […]

PTP1B [2] = target: T2, PTP1B (Homo sapiens, UniProt P18031); experiment: malachite green phosphopeptide test; settings: malachite green phosphopeptide test method, for comparison
T2 sequence (P18031 1-435): T1 sequence (P18031 1-435)
Text: The malachite green phosphopeptide test has been described as another method for measuring the activity of protein tyrosine phosphatases. Martin et al. (1985) Journal of Biological Chemistry, 260, pp. 14932 and Harder et al. (1994) Biochemical Journal, 298, pp. 395. In this method, the inorganic phosphate which the phosphatase has released from its substrate peptide is detected photometrically using the malachite green reagent. […]
as §1, with “120 μl volumes of reaction buffer are provided, with the buffer containing the following components: 100 ng of protein tyrosine phosphatase PTP1B/ml; 50 mM Hepes, pH 6.9; 150 mM NaCl; 1 mM EDTA; 2 mM DTT. To this are added 15 μl of the inhibitor solution to be tested, at a variety of concentrations.” left out, “The reduction in enzymic activity which is obtained depends on the concentration of inhibitor employed.” left out

PTP1B [3] = target: T2, PTP1B; experiment: pNPP test method; settings: for comparison
Text: The prior art discloses methods for measuring the activity of a protein tyrosine phosphatase using the substrate p-nitrophenyl phosphate (“p-NPP”). These methods are to be found in standard biochemical manuals such as Current Protocols in Protein Science: John E. Coligan (ed.), Ben M. Dunn (ed.), Hidde L. Ploegh (ed.), David W. Speicher (ed.), Paul T. Wingfield (ed.); SBN: 0-471-11184-8; loose-leaf pages, continuously updated; published by John Wiley & Sons. In these methods, the action of a phosphatase forms p-nitrophenol from the p-NPP. The p-nitrophenol thus produced can be measured photometrically on the basis of its intense yellow color in the alkaline range.
However, this test method has some unfavorable features. […] The increase in the pH leads to the color of the resulting p-nitrophenol changing to yellow, the absorption of which is determined photometrically and is a measure of the quantity of p-nitrophenol which is present. […]
The test for determining the inhibitory effect of the active compound 2,2-dioxo-2,3dihydro-2,6-benzo[1,2,3]oxathiazol-5-yl)-(9-ethyl-9H-carbazol-3-ylmethyl)amine using the DiFMUP test takes place in a black microtiter plate at a temperature of 37° C. […] The measure of the enzyme activity is the increase in fluorescence, which can be depicted graphically (FIG. 1). […]

[4] = target: T1, protein tyrosine phosphatase PTP1B; experiment: Concentration dependence of the cleavage of DiFMUP by PTP1B (Lineweaver-Burk analysis); settings: DiFMUP as substrate 0-200 μM, 100 ng PTP1b/ml, pH 6.9, 37° C.
Method: The reaction takes place in a black microtiter plate at a temperature of 37° C. 135 μl of reaction buffer are provided in each case, with this buffer containing the following components: 100 ng of protein tyrosine phosphatase PTP1b/ml; 50 mM Hepes, pH 6.9; 150 mM NaCl; 1 mM EDTA; 2 mM DTT. The phosphatase reaction is started by adding 15 μl of DiFMUP solution, which contains the substrate at 10 times the final concentration which is desired in the test mixture (FIG. 2: 0-200 μM), and the fluorescence is measured, at time intervals of 30 seconds for a period of 15 minutes, in a fluorescence microtiter plate photometer at 358/455 nm. The measure of the enzyme activity is the increase in fluorescence (measured in RFU) in dependence on the DiFMUP concentration, which can be depicted graphically (FIG. 2). This graph can subsequently be used to determine the kinetic constants of the enzyme reaction by means of a Lineweaver-Burk analysis. […] This analysis can also be carried out in an analogous manner for other tyrosine phosphatases.

Row | SMILES | IC50 [1] [µM] | IC50 (PTP1B [2]) [µM] | IC50 (PTP1B [3]) [µM] | Km [4] [µM] | Vmax [4] [RFU sec-1 mg-1]
1 | CCn1c2ccccc2c2cc(CNc3ccc4c(c3)NS(=O)(=O)O4)ccc21 [2,2-dioxo-2,3-dihydro-2,6-benzo[1,2,3]oxathiazol-5-yl)-(9-ethyl-9H-carbazol-3-ylmethyl)amine] | 3.8 | 3.9 | 5.1 | – | –
2 | Cc1cc(=O)oc2c(F)c(OP(=O)(O)O)c(F)cc12 [DiFMUP, 6,8-difluoro-4-methylumbelliferyl phosphate] | – | – | – | 19 | 388000
